Values of other authors as cited in PMC10620911 (ACS Omega, 2023).

Conditions: structure-dependent

Cc1noc(-c2ccc(-c3ccc(C4(C(=O)O)CC4)cc3)cc2)c1NC(=O)O[C@H](C)c1ccccc1 [BMS-986020]
hepatobiliary toxicity: hepatobiliary toxicity
